Experimental data reported in the supplement of paper PMC10307832.

compound: C[C@@H](Oc1cc(-c2cnn(C3CCNCC3)c2)cnc1N)c1c(Cl)ccc(F)c1Cl [Crizotinib] + CS(=O)(=O)CCNCc1ccc(-c2ccc3ncnc(Nc4ccc(OCc5cccc(F)c5)c(Cl)c4)c3c2)o1 [Lapatinib] (partner 2 µM); assay: relative viability (nuclei count vs DMSO), 5 days (fraction); higher = more cells survive; conditions: first compound 0.3162 µM
Outline: (§1)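 Relative viability was taken as the ratio of nuclei in treated wells to nuclei in vehicle wells. Lung cancer cell lines in 1536-well plates received compounds by pin tool one day after seeding, either one drug alone or a fixed anchor-drug dose plus five library-drug doses (not always all listed) in √10 steps. Nuclei were counted on 4× images after 5 days of treatment, and values are medians of duplicate plates.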

Q: How did the relative viability turn out when HCC-15 was run?
A: 0.549

Q: For HCC-78, which relative viability is on record?
A: 0.261

Q: For HCC-827, which relative viability is on record?
A: 0.175

Q: Which relative viability does the source give for HOP-62 here?
A: 0.84

Q: For IA-LM, which relative viability is on record?
A: 0.822

Q: For NCI-H358, which relative viability is on record?
A: 0.382

Q: Which relative viability does the source give for NCI-H520 here?
A: 0.391

Q: For NCI-H650, which relative viability is on record?
A: 0.803

Q: NCI-H661 was tested. Which relative viability did it give?
A: 0.469

Q: How did the relative viability turn out when NCI-H1299 was run?
A: 0.996

Q: With NCI-H1563 as the cell line, how does the relative viability read?
A: 0.753

Q: With NCI-H1650 as the cell line, how does the relative viability read?
A: 0.363

Q: With NCI-H1792 as the cell line, how does the relative viability read?
A: 0.78

Q: Which relative viability does the source give for NCI-H2009 here?
A: 0.812

Q: How did the relative viability turn out when NCI-H2023 was run?
A: 0.372

Q: With NCI-H2228 as the cell line, how does the relative viability read?
A: 0.488

Q: For SK-LU-1, which relative viability is on record?
A: 0.889

Q: Which relative viability does the source give for SK-MES-1 here?
A: 0.43

Q: With SW 1573 as the cell line, how does the relative viability read?
A: 1.07

same assay, conditions: first compound 1 µM

Q: 201T was tested. Which relative viability did it give?
A: 1.06

Q: Which relative viability does the source give for A549 here?
A: 1.05

Q: A-427 was tested. Which relative viability did it give?
A: 1.12

Q: For ABC-1, which relative viability is on record?
A: 1.36

Q: How did the relative viability turn out when BEN was run?
A: 0.749

Q: How did the relative viability turn out when CAL-12T was run?
A: 0.608

Q: How did the relative viability turn out when COR-L23 was run?
A: 0.985

Q: COR-L 105 was tested. Which relative viability did it give?
A: 0.374

Q: How did the relative viability turn out when Calu-6 was run?
A: 0.991

Q: With EBC-1 as the cell line, how does the relative viability read?
A: 0.205

Q: How did the relative viability turn out when EKVX was run?
A: 0.186

Q: For EMC-BAC-2, which relative viability is on record?
A: 0.887

Q: How did the relative viability turn out when EPLC-272H was run?
A: 1.11

Q: For H3255, which relative viability is on record?
A: 0.219

Q: How did the relative viability turn out when HARA was run?
A: 0.667

Q: How did the relative viability turn out when HCC-15 was run?
A: 0.836

Q: HCC-44 was tested. Which relative viability did it give?
A: 1.05

Q: For HCC-78, which relative viability is on record?
A: 1.26

Q: With HCC-366 as the cell line, how does the relative viability read?
A: 1.11

Q: HCC-827 was tested. Which relative viability did it give?
A: 0.18

Q: How did the relative viability turn out when HOP-62 was run?
A: 1

Q: IA-LM was tested. Which relative viability did it give?
A: 0.641

Q: Which relative viability does the source give for NCI-H358 here?
A: 0.483

Q: Which relative viability does the source give for NCI-H520 here?
A: 0.927

Q: Which relative viability does the source give for NCI-H650 here?
A: 0.891

Q: NCI-H661 was tested. Which relative viability did it give?
A: 0.539

Q: Which relative viability does the source give for NCI-H1299 here?
A: 0.955

Q: NCI-H1563 was tested. Which relative viability did it give?
A: 0.789

Q: Which relative viability does the source give for NCI-H1650 here?
A: 0.799

Q: How did the relative viability turn out when NCI-H1792 was run?
A: 0.842

Q: NCI-H2009 was tested. Which relative viability did it give?
A: 0.93

Q: Which relative viability does the source give for NCI-H2023 here?
A: 0.465

Q: NCI-H2228 was tested. Which relative viability did it give?
A: 0.412

Q: For SK-MES-1, which relative viability is on record?
A: 0.541

Q: How did the relative viability turn out when SW 1573 was run?
A: 1.08

Q: Which relative viability does the source give for UMC-11 here?
A: 0.668

compound: C[C@@H](Oc1cc(-c2cnn(C3CCNCC3)c2)cnc1N)c1c(Cl)ccc(F)c1Cl [Crizotinib] + NC(=O)Nc1cc(-c2cccc(F)c2)sc1C(=O)N[C@H]1CCCNC1 [AZD7762] (partner 0.2 µM); assay: as above; conditions: first compound 0.01 µM
Outline: as §1

Q: With 201T as the cell line, how does the relative viability read?
A: 0.6

Q: With A-427 as the cell line, how does the relative viability read?
A: 0.709

Q: For ABC-1, which relative viability is on record?
A: 0.902

Q: For BEN, which relative viability is on record?
A: 0.726

Q: For CAL-12T, which relative viability is on record?
A: 0.527

Q: For ChaGo-K-1, which relative viability is on record?
A: 0.83

Q: EKVX was tested. Which relative viability did it give?
A: 0.67

Q: With EMC-BAC-2 as the cell line, how does the relative viability read?
A: 1.07

Q: For EPLC-272H, which relative viability is on record?
A: 0.209

Q: With H3255 as the cell line, how does the relative viability read?
A: 0.833

Q: With HARA as the cell line, how does the relative viability read?
A: 0.216

Q: HCC-15 was tested. Which relative viability did it give?
A: 1.07

Q: For HCC-44, which relative viability is on record?
A: 0.971

Q: HCC-78 was tested. Which relative viability did it give?
A: 0.657

Q: HCC-366 was tested. Which relative viability did it give?
A: 0.239

Q: With HCC-827 as the cell line, how does the relative viability read?
A: 0.236

Q: Which relative viability does the source give for HOP-62 here?
A: 0.447

Q: LCLC-103H was tested. Which relative viability did it give?
A: 0.798

Q: With NCI-H441 as the cell line, how does the relative viability read?
A: 0.998

Q: With NCI-H522 as the cell line, how does the relative viability read?
A: 0.852

Q: With NCI-H650 as the cell line, how does the relative viability read?
A: 1.03

Q: NCI-H1792 was tested. Which relative viability did it give?
A: 0.634

Q: How did the relative viability turn out when NCI-H2342 was run?
A: 0.465

Q: SW 900 was tested. Which relative viability did it give?
A: 0.54

same assay, conditions: first compound 0.03162 µM

Q: Which relative viability does the source give for 201T here?
A: 0.628

Q: Which relative viability does the source give for A-427 here?
A: 0.766

Q: For ABC-1, which relative viability is on record?
A: 0.848

Q: For BEN, which relative viability is on record?
A: 0.645

Q: CAL-12T was tested. Which relative viability did it give?
A: 0.679

Q: With ChaGo-K-1 as the cell line, how does the relative viability read?
A: 0.841

Q: How did the relative viability turn out when EKVX was run?
A: 0.742

Q: Which relative viability does the source give for EMC-BAC-2 here?
A: 1.1

Q: EPLC-272H was tested. Which relative viability did it give?
A: 0.19

Q: H3255 was tested. Which relative viability did it give?
A: 0.88

Q: For HARA, which relative viability is on record?
A: 0.274

Q: How did the relative viability turn out when HCC-15 was run?
A: 0.721

Q: Which relative viability does the source give for HCC-44 here?
A: 0.997

Q: How did the relative viability turn out when HCC-78 was run?
A: 0.686

Q: For HCC-366, which relative viability is on record?
A: 0.324

Q: How did the relative viability turn out when HCC-827 was run?
A: 0.201

Q: Which relative viability does the source give for HOP-62 here?
A: 0.508

Q: LCLC-103H was tested. Which relative viability did it give?
A: 0.78

Q: With NCI-H358 as the cell line, how does the relative viability read?
A: 0.533

Q: For NCI-H441, which relative viability is on record?
A: 1.03

Q: Which relative viability does the source give for NCI-H522 here?
A: 0.792

Q: With NCI-H650 as the cell line, how does the relative viability read?
A: 0.979

Q: NCI-H1648 was tested. Which relative viability did it give?
A: 0.513

Q: NCI-H1792 was tested. Which relative viability did it give?
A: 0.881

Q: With NCI-H2342 as the cell line, how does the relative viability read?
A: 0.504

Q: For SW 900, which relative viability is on record?
A: 0.627

same assay, conditions: first compound 0.1 µM

Q: For 201T, which relative viability is on record?
A: 0.558

Q: How did the relative viability turn out when A-427 was run?
A: 0.773

Q: How did the relative viability turn out when ABC-1 was run?
A: 0.695

Q: How did the relative viability turn out when BEN was run?
A: 0.671

Q: Which relative viability does the source give for CAL-12T here?
A: 0.624

Q: How did the relative viability turn out when ChaGo-K-1 was run?
A: 0.839

Q: How did the relative viability turn out when EKVX was run?
A: 0.647

Q: For EMC-BAC-2, which relative viability is on record?
A: 1.05

Q: For EPLC-272H, which relative viability is on record?
A: 0.263

Q: H3255 was tested. Which relative viability did it give?
A: 0.819

Q: How did the relative viability turn out when HARA was run?
A: 0.679

Q: HCC-15 was tested. Which relative viability did it give?
A: 1.2

Q: For HCC-44, which relative viability is on record?
A: 1.04

Q: Which relative viability does the source give for HCC-78 here?
A: 0.618

Q: With HCC-366 as the cell line, how does the relative viability read?
A: 0.309

Q: How did the relative viability turn out when HCC-827 was run?
A: 0.184

Q: HOP-62 was tested. Which relative viability did it give?
A: 0.622

Q: LCLC-103H was tested. Which relative viability did it give?
A: 0.877

Q: Which relative viability does the source give for NCI-H358 here?
A: 0.469

Q: For NCI-H441, which relative viability is on record?
A: 1.12

Q: How did the relative viability turn out when NCI-H522 was run?
A: 0.752

Q: How did the relative viability turn out when NCI-H650 was run?
A: 0.815

Q: For NCI-H1648, which relative viability is on record?
A: 0.684

Q: How did the relative viability turn out when NCI-H1792 was run?
A: 0.626

Q: Which relative viability does the source give for NCI-H2342 here?
A: 0.483

Q: How did the relative viability turn out when SW 900 was run?
A: 0.616

same assay, conditions: first compound 0.3162 µM

Q: How did the relative viability turn out when 201T was run?
A: 0.575

Q: How did the relative viability turn out when ABC-1 was run?
A: 0.671

Q: With BEN as the cell line, how does the relative viability read?
A: 0.586

Q: CAL-12T was tested. Which relative viability did it give?
A: 0.635

Q: How did the relative viability turn out when ChaGo-K-1 was run?
A: 0.711

Q: For EKVX, which relative viability is on record?
A: 0.685

Q: For HARA, which relative viability is on record?
A: 0.382

Q: For HCC-44, which relative viability is on record?
A: 0.936

Q: How did the relative viability turn out when HCC-78 was run?
A: 0.572

Q: How did the relative viability turn out when HCC-827 was run?
A: 0.174

Q: Which relative viability does the source give for HOP-62 here?
A: 0.565

Q: With LCLC-103H as the cell line, how does the relative viability read?
A: 0.839

Q: For NCI-H358, which relative viability is on record?
A: 0.458

Q: For NCI-H441, which relative viability is on record?
A: 1.09

Q: Which relative viability does the source give for NCI-H522 here?
A: 0.908

Q: With NCI-H1648 as the cell line, how does the relative viability read?
A: 0.467

Q: NCI-H2342 was tested. Which relative viability did it give?
A: 0.441

Q: Which relative viability does the source give for SW 900 here?
A: 0.663

same assay, conditions: first compound 1 µM

Q: How did the relative viability turn out when 201T was run?
A: 0.716

Q: Which relative viability does the source give for A-427 here?
A: 0.684

Q: With ABC-1 as the cell line, how does the relative viability read?
A: 1.34

Q: BEN was tested. Which relative viability did it give?
A: 0.679

Q: With CAL-12T as the cell line, how does the relative viability read?
A: 0.694

Q: ChaGo-K-1 was tested. Which relative viability did it give?
A: 0.905
